# Laboratory results published in US20220184003A1, “Formulations of Cannabidiol Derivatives and Their Use as Modulators of Cannabinoid Receptor Type 2 (CB2)” (EMERALD HEALTH PHARMACEUTICALS INC, priority 2019, published 2022).
# Like-named read-outs stand apart in the source and are kept apart here.
# How the values were obtained:
# in vitro = in vitro ADME; conditions: plasma
# [1] = system: TGFβ-induced Col1A2 gene transcription and collagen synthesis; assay: TGFβ-induced fibrotic responses in vitro; type: cell-based
# [2] = Stress test of VCE-004.8 drug substance; type: physicochemical
# Procedure: A stress test was performed concluding that VCE-004.8 drug substance is stable for 3 days at 65° C.+/−5° C. in glass vials. […] A short-term stability study at 40° C. was completed with indecisive results due to the early development stage of the impurity method.
# [3] = system: Theiler Murine Encephalomyelitis Virus-induced demyelmating disease model (TMEV); assay: TMEV model; type: in vivo, mice
# Text: 2) Theiler Murine Encephalomyelitis Virus-induced demyelmating disease model (TMEV) that mimics progressive forms of MS.
# [4] = system: cuprizone/rapamycin (C/R) mouse model; assay: Cuprizone/rapamycin model, myelin assessment in grey and white matter; type: in vivo, Male C57BL/6J
# Procedure: Myelin assessment in grey and white matter was evaluated via: (1) PLP staining and density in the hippocampus and cortex; and (2) PPD staining and manual counts in the corpus callosum.
# Male C57BL/6J (n=5 or 12/group) were treated for 12 weeks with C/R to cause demyelination of white and gray matter regions of the brain. […] Thereafter, the brains were harvested and processed for immunohistochemical staining and quantification of myelinated axons in gray matter (hippocampus (HIP), cerebral cortex (CTX)) by proteolipid protein (PLP) staining and white matter (corpus callosum CC)) by paraphenylenediamine (PPD) staining.
# physchem [5] = type: physicochemical; conditions: oil or lipid
# Procedure: The solubility of a compound is an important factor in determining its absorption from the gastrointestinal tract and ultimately its oral bioavailability. First it was determined the solubility of VCE-004.8 in a collection of different solvents (e.g., aqueous, lipidic, organic, etc.). Additionally, a test of stability of VCE-004.8 in selected solvents was also used as a criterion for selection of the best solvents.
# [6] = Stability of VCE-004.8 during phytosomization (reflux in ethyl acetate); type: physicochemical; conditions: area %
# Procedure: FIG. 8 depicts a stability of VCE-004.8 during phytosomization, at reflux in ethyl acetate at different times (45 min, 6 hr and 24 hr).
# A preliminary investigation of the compound stability gave indication that the active principle is stable in the process conditions, although an impurity peak not detected in the starting material and almost neglectable at […], increased after 6 hr (1.7% in area %) and grew after 24 hr (6.2% in area %), as shown in FIG. 8.
# physchem [7] = type: physicochemical; conditions: for solubility at 24 h / solubility at 24 hr: thermodynamic from solid
# Procedure: A quantitative thermodynamic solubility determination on VGE-004.8 was performed. Suspensions of VCE-004.8 were prepared in different pharmaceutical vehicles and organic solvents. The organic solvents, lipid and co-solvent vehicles consisted of pure solvent or lipid, while the cyclodextrin solutions were prepared in phosphate buffer pH 7.0. […] The concentration of VCE-004.8 in solution was determined by HPLC analysis.
# [8] = Solvent shift method in SGF and SIF; type: physicochemical; conditions: for API concentration in solution: SIF
# Procedure: These experiments applied to a 5 mg/mL solution of VCE-004.8 in DMSO, of which 80 μL was added to 4 mL polymer solutions prepared in simulated intestinal fluid (SIF) and simulated gastric fluid (SGF). Subsequently the samples were incubated at 25° C. under continuous stirring, and after 0.5, 1, 2 and 4 hr, an aliquot was taken, filtered and analyzed by HPLC to determine the VCE-004.8 concentration in solution. Results are presented in FIG. 11 (SGF) and FIG. 12 (SIF).
# [9] = oral 5, 10, 20 mg/kg/day for 6 weeks, vs vehicle control
structure (smiles),measurement,setting,value
"C=C(C)C1CCC(C)=C[C@H]1C1=C(O)C(=O)C(CCCCC)=C(NCc2ccccc2)C1=O (stereo partly drawn) [VCE-004.8, (1′R,6′R)-3-(Benzylamine)-6-hydroxy-3′-methyl-4-pentyl-6′-(prop-1-en-2-yl)[1,1′-bi(cyclohexane)]-2′,3,6-triene-2,5-dione]",fraction unbound,in vitro,< 0.01
same,TGFβ-induced Col1A2 gene transcription and collagen synthesis,[1],inhibited
same,TGFβ-mediated myofibroblast differentiation,[1],inhibited
same,wound-healing activity,[1],impaired
same,stress test: stable for,[2]; 65° C.+/−5° C. in glass vials,3 days
same,temperatures at which degradation of the product was observed,[2]; stress test,above 65 °C
same,axonal disorganization,[3]; TMEV mice,prevented
same,clinical severity and neuropathology,"[3]; TMEV model, actimeter test",attenuated
same,microglial reactivity and infiltration of inflammatory cells,[3]; TMEV-infected mice,significantly reduced
same,motor deficits,[3]; mice infected with Theiler's virus,ameliorated
same,demyelination,[3]; spinal cord of TMEV mice,significantly reduced
same,number of infiltrated CD4+ T cells and immune cells,[3]; spinal cord of TMEV mice,reduced
same,"levels of myelinated axons in white matter (corpus callosum), dose relation",[4],dose related effect
same,area of PLP staining / myelination in the cortex,[4]; [9],no significant increase
same,area of PLP staining / myelination in the hippocampus,[4]; [9],no significant increase
same,solubility,physchem [5]; 25 °C,17700 µg/mL
same,solubility,physchem [5]; 37 °C,34500 µg/mL
same,impurity peak,[6]; after 6 hr at reflux in ethyl acetate,1.7%
same,impurity peak,[6]; after 24 hr at reflux in ethyl acetate,6.2%
same,Solubility class,physchem [7],practically insoluble
same,solubility at 24 h,"physchem [7]; 25 °C, oil or lipid, Solubility",35700 µg/mL
same,solubility at 24 h,"physchem [7]; 25 °C, oil or lipid, Solubility class (Ph. Eur.)",33000 to 100000 µg/mL
same,solubility at 24 h,"physchem [7]; 25 °C, pH 1, simulated gastric fluid, Solubility",< 8 µg/mL
same,solubility at 24 h,"physchem [7]; 25 °C, pH 1, simulated gastric fluid, Solubility class (Ph. Eur.)",< 100 µg/mL
same,solubility at 24 h,"physchem [7]; 25 °C, pH 2, aqueous buffer, Solubility",< 8 µg/mL
same,solubility at 24 h,"physchem [7]; 25 °C, pH 5, aqueous buffer, Solubility",< 8 µg/mL
same,solubility at 24 h,"physchem [7]; 25 °C, pH 5, aqueous buffer, Solubility class (Ph. Eur.)",< 100 µg/mL
same,solubility at 24 hr,"physchem [7]; 25 °C, pH 7, aqueous buffer, Solubility",< 8 µg/mL
same,solubility at 24 hr,"physchem [7]; 25 °C, pH 7, aqueous buffer, Solubility class (Ph. Eur.)",< 100 µg/mL
same,solubility at 24 h,"physchem [7]; 25 °C, pH 7, aqueous with cosolvent or surfactant or cyclodextrin, Solubility class (Ph. Eur.)",< 100 µg/mL
same,solubility at 24 hr,"physchem [7]; 25 °C, pH 9, aqueous buffer, Solubility",< 8 µg/mL
same,solubility at 24 hr,"physchem [7]; 25 °C, pH 9, aqueous buffer, Solubility class (Ph. Eur.)",< 100 µg/mL
same,solubility at 24 h,"physchem [7]; 37 °C, oil or lipid, Solubility",23700 µg/mL
same,Solubility class (Ph. Eur.),physchem [7]; pH 2,Practicalty insoluble
same,Solubility class,physchem [7]; pH 7,practically insoluble
same,VCE-004.8 concentration in solution,"[8]; SGF, TGPS solution, after 4 hr, 25° C.",about 0.03 mg-mL
same,API concentration in solution,"[8]; Eudragit L100, supersaturation for at least 1 hr",approximately 60 μg/mL
same,API concentration in solution,"[8]; PVP K30, supersaturation for at least 1 hr",approximately 60 μg/mL
same,API concentration in solution,"[8]; all the HPMC derivates (except for HPMC as is), from 0.5 to 1 hr",approximately 60 μg/mL
